Source: paper PMC5983770, “Preferential Inhibition of Wnt/β-Catenin Signaling by Novel Benzimidazole Compounds in Triple-Negative Breast Cancer” (International Journal of Molecular Sciences, 2018)
Values after ≈ are worked out from the molar mass of the structure shown. Like-named read-outs stand apart in the source and are kept apart here.

B1: Mesd: an LRP6 antagonist (protein, UniProt Q14696 34-234, looked up)
LRP chaperone MESD: AEGSPGTPDESTPPPRKKKKDIRDYNDADMARLLEQWEKDDDIEEGDLPEHKRPSAPVDFSKIDPSKPESILKMTKKGKTLMMFVTVSGSPTEKETEEITSLWQGSLFNANYDVQRFIVGSDRAIFMLRDGSYAWEIKDFLVGQDRCADVTLEGQVYPGKGGGSKEKNKTKQDKGKKKKEGDLKSRSSKEENRAGNKREDL

How the values were obtained:
[1] = system: active (non-phosphorylated) β-catenin; assay: Western blot of active β-catenin after cytoplasmic-nuclear fractionation; format: cell-based, human; conditions: 5 µM, 18 h; for nuclear active β-catenin expression (Western blot): TNBC cells
Method: (§1) Cells were seeded in 6-well tissue-culture treated plates for 48 h until 80% confluency prior to treatment. Whole cell extracts were prepared with Laemmli buffer (5% SDS, 10% glycerol, 0.5 M Tris-Cl) supplemented with protease and phosphatase inhibitors and equivalent amounts of proteins were separated by SDS-PAGE. Proteins were transferred to polyvinylidene difluoride (PVDF) membrane (Bio-Rad, Hercules, CA, USA) and blocked with 5% BSA in tris-buffered saline (TBS) supplemented with 0.1% Tween-20 for 1 h. Membranes were incubated with primary antibody overnight on a shaker at 4 °C. They were then washed and incubated with secondary antibody for 1 h. Bands were visualized with the Enhanced Chemiluminescence Detection reagents (PerkinElmer).
Cells were lysed using the CERI and CERII reagents of the cytoplasmic-nuclear extraction kit (ThermoFisher), to obtain cytoplasmic fractions following treatment. Nuclear fractions were isolated by using 1× Laemmli buffer and sonication for a few seconds. Membrane was incubated overnight with active β-catenin (MilliporeSigma, Burlington, MA, USA), lamin A/C and tubulin antibodies.

[2] = system: cyclin D1 and survivin; assay: Western blot of cyclin D1 and survivin in TNBC cells; format: cell-based, human; conditions: 2.5 and 5 µM, 18 h
Method: as §1

[3] = system: active β-catenin; assay: Immunocytochemistry of active β-catenin; format: cell-based, human; conditions: MDA-MB-231 and MDA-MB-468 cells, 5 µM, 18 h
Method: Cells were seeded on coverslips for 48 h prior to treatment with DMSO and SR compounds for 18 h. Cells were washed with PBS, fixed with 4% paraformaldehyde for 20 min and permeabilized with 0.5% Triton X-100 for 20 min. Following blocking with 3% BSA for 30 min, cells were incubated overnight with active β-catenin antibody (MilliporeSigma) at 4 °C. Cells were incubated with Alexa 488 goat anti-mouse secondary antibody (1:1000) at room temperature for 1 h. To counterstain, cells were incubated with 1:5000 Hoechst 33342 for 20 min. […] Images were obtained at 20× magnification.

[4] = system: pSTAT3 (Y705), STAT3; assay: Western blot of STAT3 phosphorylation and STAT3β isoform; format: cell-based; conditions: for expression of the pSTAT3β and total STAT3β isoform (lower band): MDA-MB-468 and MCF10A cells; for expression of the pSTAT3β and total STAT3β isoform (lower band) / STAT3 phosphorylation: 18 h; for STAT3 phosphorylation: TNBC and MCF10A cells, 2.5 or 5 µM
Method: as §1

[5] = system: p4EBP1 (mTOR signaling); assay: Western blot of 4EBP1 phosphorylation (mTOR signaling) in MCF10A cells; format: cell-based; conditions: 18 h
Method: as §1

[6] = system: noncancerous MCF10A cells; assay: In vitro cytotoxicity (Cell Titer Glo cell viability); format: cell-based; conditions: Homo sapiens, MCF-10A; 0–5 µM, 72 h
Method: (§3) MCF10A and TNBC cells (2 × 10^3) were seeded with appropriate growth media containing 10% FBS in each well of tissue culture-treated 96-well black plates (Corning #3904) (Corning, NY, USA) 16 h prior to treatment. […] Cell viability was then evaluated with Cell Titer Glo (Promega, Madison, WI, USA) and luminescence was measured using a TOPCount NXT plate reader (PerkinElmer, Waltham, MA, USA). Curves were fit according to nonlinear regression and IC50 values were calculated using GraphPad Prism 7. Cells were treated in quadruplicates and experiments were performed three times.

[7] = system: phosphorylated LRP6; assay: Western blot of phosphorylated LRP6 in TNBC cell lines; format: cell-based, human; conditions: both TNBC cell lines (MDA-MB-231, MDA-MB-468), 18 h
Method: as §1

[8] = system: p4EBP1 (mTOR signaling); assay: Western blot of 4EBP1 phosphorylation (mTOR signaling) in TNBC cell lines; format: cell-based, human; conditions: for phosphorylation of 4EBP1: both TNBC cell lines, 18 h
Method: as §1

[9] = system: SUM149, SUM159, MDA-MB-231 and MDA-MB-468 TNBC cell lines; assay: In vitro cytotoxicity (Cell Titer Glo cell viability); conditions: for IC50: Homo sapiens, 72 h, read-out: IC50 values for TNBC cell lines (cell viability); for selective cytotoxicity against TNBC cell lines compared to MCF10A cells: TNBC cell lines versus MCF10A cells
Method: as §3

[10] = system: MDA-MB-231 cells; assay: Annexin V/PI apoptosis assay (flow cytometry); format: cell-based, human; conditions: 48 h; for percentage of MDA-MB-231 cells in the late apoptotic phase (% of total): 5 µM, vehicle control 8.1%; for apoptosis compared to DMSO / scatterplot quadrant Q1 (Annexin V/PI) / scatterplot quadrant Q3 (Annexin V/PI) / scatterplot quadrant Q2 (Annexin V/PI) / scatterplot quadrant Q4 (Annexin V/PI): MDA-MB-231, 5 µM; for scatterplot quadrant Q1 (Annexin V/PI): DMSO 1.1; for scatterplot quadrant Q3 (Annexin V/PI): DMSO 3.4; for scatterplot quadrant Q2 (Annexin V/PI): DMSO 8.1; for scatterplot quadrant Q4 (Annexin V/PI): DMSO 87.5
Method: (§2) Cells were seeded in 6-well tissue-culture treated plates (Corning) for overnight incubation. Culture media was replaced with growth media containing 1% FBS. Cells were treated with compounds for 48 h prior to harvest. Apoptosis/necrosis was detected by the FITC Annexin V Apoptosis Detection Kit I from Becton Dickinson (San Jose, CA, USA). Cells positive for Annexin V, propidium iodide (PI) or both were all designated as apoptotic.

[11] = system: MDA-MB-468 cells; assay: Annexin V/PI apoptosis assay (flow cytometry); format: cell-based, human; conditions: MDA-MB-468, 5 µM, 48 h
Method: as §2

[12] = system: Wnt/β-catenin signaling; conditions: cited from earlier work
[13] = system: phosphorylated LRP6; assay: Western blot of phosphorylated LRP6 in MCF10A cells; format: cell-based; conditions: 2.5 or 5 µM, 18 h
Method: as §1

[14] = pH 7.4; introduction, no reference given; cited from earlier work
[15] = rat liver microsomes; introduction, no reference given; cited from earlier work
[16] = cited from earlier work
[17] = system: SUM149, SUM159, MDA-MB-231 and MDA-MB-468 TNBC cell lines
Method: as §3

[18] = system: Notch signaling (Hes1); assay: Western blot of Notch signaling (Hes1); format: cell-based; conditions: as summarised in the abstract
Method: as §1

[19] = system: cyclin D1 and survivin; assay: Western blot of cyclin D1 and survivin in MCF10A cells; format: cell-based; conditions: 2.5 µM, 18 h, compared with niclosamide
Method: as §1

[20] = system: phosphodiesterase; design: method as in PMID 22264761; conditions: screen of thirty 6-nitrobenzimidazoles; cited from earlier work
[21] = system: Wnt/β-catenin signaling; assay: Effect on Wnt/β-catenin signaling (Western blot); format: cell-based; conditions: as summarised in the abstract
Method: as §1

[22] = design: method as in PMID 20194742; conditions: cited from earlier work

| Molecule | expression of the pSTAT3β and total STAT3β isoform (lower band) [4] | STAT3 phosphorylation [4] | IC50 [6] [µM] | IC50 [9] [µM] | percentage of MDA-MB-231 cells in the late apoptotic phase (% of total) [10] [%] | apoptosis compared to DMSO [10] | scatterplot quadrant Q1 (Annexin V/PI) [10] | scatterplot quadrant Q3 (Annexin V/PI) [10] | scatterplot quadrant Q2 (Annexin V/PI) [10] | scatterplot quadrant Q4 (Annexin V/PI) [10] | apoptosis compared to DMSO [11] | phosphorylated LRP6 [13] | other results |
| --- | --- | --- | --- | --- | --- | --- | --- | --- | --- | --- | --- | --- | --- |
| Oc1ccc(Cl)cc1-c1nc2ccc(C(F)(F)F)cc2[nH]1 [SRI33576] | not | noticeably less of an effect | 5 | 1.9 to 3.2 | 24 | induced significantly more apoptosis | 10.7 | 11.1 | 24.0 | 54.3 | induced significantly more apoptosis | not | nuclear active β-catenin expression (Western blot) [1]: decreased nuclear active β-catenin expression; expression of cyclin D1 and survivin [2]: decreased expression; nuclear active β-catenin expression (immunocytochemistry) [3]: a decrease in nuclear active β-catenin expression; phosphorylation of 4EBP1 ([5]; 5 µM): did not yield such a change; phosphorylated LRP6 ([7]; 5 µM): decreased phosphorylated LRP6; phosphorylation of 4EBP1 ([8]; 5 µM): inhibited phosphorylation of 4EBP1; inhibition of Wnt/β-catenin signaling ([12]; colorectal cancer cells, decreasing cytosolic axin2 and β-catenin and overall c-myc, survivin and cyclin D1): inhibit Wnt/β-catenin signaling |
| O=C(Nc1ccc([N+](=O)[O-])cc1Cl)c1cc(Cl)ccc1O [niclosamide, reference compound] | markedly decreased | downregulated STAT3 phosphorylation | 1 | 0.3 to 1 | 29.5 |  | 6.09 | 10.5 | 29.5 | 53.9 |  | decreased phosphorylated LRP6 | solubility [14]: 1.6 µM (≈ 0.523 µg/mL); metabolic stability t1/2 [15]: 29 min |
| Oc1ccc(F)cc1-c1nc2c(Cl)cc(Cl)cc2[nH]1 [SRI35357, 2-(5,7-Dichloro-3H-benzo[d]imidazol-2-yl)-4-fluorophenol] |  |  |  |  |  |  |  |  |  |  |  |  | selective cytotoxicity against TNBC cell lines compared to MCF10A cells [9]: not selectively cytotoxic |
| C=CCN1CC(=O)N2[C@@H](Cc3ccc(OP(=O)([O-])[O-])cc3)C(=O)N(Cc3cccc4cn(C)nc34)C[C@@H]2N1C(=O)NCc1ccccc1.[Na+].[Na+] [CWP232228] |  |  |  |  |  |  |  |  |  |  |  |  | blood concentration ([16]; IV, 200 mg/kg, for 7 h): 800 ng/mL; toxicity in animals [16]: minimal toxicity and no obvious clinical signs |
| 2-(5-Chloro-6-fluoro-1H-benzo[d]imidazol-2-yl)-4-fluorophenol [SRI35361] |  |  |  |  |  | did not induce significantly more apoptosis |  |  |  |  | did not induce significantly more apoptosis |  | selective cytotoxicity against TNBC cell lines compared to MCF10A cells [17]: not selectively cytotoxic |
| Oc1ccc(Cl)cc1-c1nc2cc(Cl)c(Cl)cc2[nH]1 [SRI35889, 4-Chloro-2-(5,6-dichloro-1H-benzo[d]imidazol-2-yl)phenol] | not | noticeably less of an effect | 5.4 | 1.1 to 2.4 | 26.5 | induced significantly more apoptosis | 15.1 | 11.0 | 26.5 | 47.4 | induced significantly more apoptosis | not | cytoplasmic β-catenin (Western blot) ([1]; MDA-MB-468 cells): decreased cytoplasmic β-catenin; nuclear active β-catenin expression (Western blot) [1]: decreased nuclear active β-catenin expression; effect on Notch signaling [18]: not affecting; expression of cyclin D1 and survivin [2]: decreased expression; nuclear active β-catenin expression (immunocytochemistry) [3]: a decrease in nuclear active β-catenin expression; phosphorylation of 4EBP1 ([5]; 2.5 µM, compared with TNBC cell lines): less of a change; phosphorylated LRP6 ([7]; 2.5 and 5 µM): decreased phosphorylated LRP6; phosphorylation of 4EBP1 ([8]; 2.5 and 5 µM): inhibited 4EBP1 phosphorylation; cyclin D1 or survivin expression [19]: did not affect cyclin D1 or survivin expression as much as niclosamide |
| O=[N+]([O-])c1ccc2nc(-c3cc(Cl)ccc3O)[nH]c2c1 [SRI32529] |  |  |  |  |  |  |  |  |  |  |  |  | effect on Notch signaling [18]: mitigated; effect on STAT3 signaling ([4]; as summarised in the abstract): mitigated; outcome of screen for phosphodiesterase inhibitors [20]: not selected as one of the effective inhibitors; effect on mTOR signaling ([8]; as summarised in the abstract): mitigated; selective cytotoxicity against TNBC cell lines compared to MCF10A cells [9]: not selectively cytotoxic; potency in inhibiting Wnt/β-catenin signaling relative to SRI33576 [12]: less potency; effect on Wnt/β-catenin signaling [21]: inhibited Wnt/β-catenin signaling |
| B1 |  |  |  |  |  |  |  |  |  |  |  |  | time of highest blood concentration ([22]; mice dosed with 5, 10, 20 mg/kg): 2 h; bioavailability ([22]; mice): about 60% |
